Molecular target: T1, KIT D816V (Homo sapiens, UniProt P10721, D816V)
T1 construct: purchased Thermo Fisher Scientific (Life Technologies) SelectScreen
Assay: SelectScreen LanthaScreen
Assay type: binding
Conditions: read-out: % displacement
How it was run: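 NU5455 was profiled across the SelectScreen Broad panel of kinase activity and binding assays. Z'LYTE reactions such as CSF1R ran at apparent Km ATP, while the Adapta CAMK1 assay used ATP listed as 10. Values are given as percent.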

T1 sequence (P10721 26-976 D816V): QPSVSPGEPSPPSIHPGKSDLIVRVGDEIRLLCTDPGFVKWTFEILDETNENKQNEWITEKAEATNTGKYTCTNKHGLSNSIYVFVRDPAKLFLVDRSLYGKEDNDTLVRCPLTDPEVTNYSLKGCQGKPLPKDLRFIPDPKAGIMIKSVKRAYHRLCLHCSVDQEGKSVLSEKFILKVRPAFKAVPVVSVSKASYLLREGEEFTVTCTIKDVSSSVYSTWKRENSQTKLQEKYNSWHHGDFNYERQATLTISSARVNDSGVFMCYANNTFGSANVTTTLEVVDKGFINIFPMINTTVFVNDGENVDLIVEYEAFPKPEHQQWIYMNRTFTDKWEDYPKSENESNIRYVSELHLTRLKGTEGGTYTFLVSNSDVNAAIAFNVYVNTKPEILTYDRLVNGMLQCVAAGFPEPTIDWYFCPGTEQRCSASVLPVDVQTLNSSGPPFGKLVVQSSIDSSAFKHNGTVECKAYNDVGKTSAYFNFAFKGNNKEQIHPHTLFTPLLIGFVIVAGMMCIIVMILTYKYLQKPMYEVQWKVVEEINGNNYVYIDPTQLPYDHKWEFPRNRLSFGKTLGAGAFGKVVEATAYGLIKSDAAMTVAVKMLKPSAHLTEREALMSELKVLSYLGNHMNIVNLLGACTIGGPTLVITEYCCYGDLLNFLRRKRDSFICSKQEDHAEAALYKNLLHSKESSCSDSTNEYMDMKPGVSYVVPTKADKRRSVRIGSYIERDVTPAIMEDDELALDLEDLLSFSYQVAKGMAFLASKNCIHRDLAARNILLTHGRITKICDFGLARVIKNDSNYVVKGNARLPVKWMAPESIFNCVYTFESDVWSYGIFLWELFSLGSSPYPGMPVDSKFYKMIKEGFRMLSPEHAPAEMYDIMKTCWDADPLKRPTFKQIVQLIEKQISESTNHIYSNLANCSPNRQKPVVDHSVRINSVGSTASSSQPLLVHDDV

CN(C(=O)CN1CCOCC1)c1ccc2sc3c(-c4cccc5c(=O)cc(N6CC7CCC(C6)O7)oc45)cccc3c2c1 [NU5455]
inhibition at 1 µM: 0.9%

— publication PMC6934184, “Selective DNA-PKcs inhibition extends the therapeutic index of localized radiotherapy and chemotherapy” (The Journal of Clinical Investigation, 2019)
